Measurements published in US8658672B2, “HIF-1α activating agent” (University of Seoul Foundation of Industrial and Academic …, priority 2006, dated 2014).

Key:
Format in all cases: cell-based, human
[1] = tested on: HIF-1α and CBP; experiment: Co-immunoprecipitation of HIF-1α with CBP in HepG2 cells; details: normoxic, CQ 100 μM, MG132 5 μM 6 hours
Method: Total cell extract was prepared by the method of Jaakkola, et al (Jaakkola et al., Science 292:468-472, 2001). For immunoprecipitation, 200 μg of samples of whole cell lysates were reacted with 1 μg of anti-mouse IgG (Santa Cruz Biotechnology, USA) and 10 μl of 0.5% ImmunoPure immobilized protein A/G gel (Pierce, USA) for 30 minutes at 4° C. After removing protein A/G gel, the cleared extracts were mixed with 1 μg of anti-CBP antibody (Santa Cruz Biotechnology, USA). After addition of 15 μl of 0.5% ImmunoPure immobilized protein A/G gel, they were left at 4° C. for 16 hours. The immunoprecipitates were pelleted, washed four times with PBS and resuspended in SDS sample buffer. Samples were then boiled for 5 minutes and run on 8% SDS-polyacrylamide gels, and the proteins were transferred to nitrocellulose membranes by semi-dry transfer (Trans-Blot SD, Bio-Red, Hercules, USA). Co-immunoprecipitated proteins were reacted with anti-human HIF-1α antibody (BD, Pharmingen, USA) and/or anti-CBP antibody and visualized by enhanced chemiluminescence, according to the manufacturer's instruction (Amersham, USA), with anti-mouse or anti-rabbit Ig conjugated with horseradish peroxidase (HRP) as a secondary antibody.

[2] = tested on: HRE (hypoxia-response element); experiment: HRE dependent gene expression in HepG2 hepatoma cells (luciferase reporter gene assay); details: p(HRE)4-luc, TPEN 5, 10 μM, CQ 10, 50 μM, 16 hours
Method: Human HepG2 hepatoma cells were grown to the density of 5×10^4 and then transfected with 100 ng of HRE-driven reporter plasmid, p(HRE)4-luc together with plasmid pCHO110 which encodes β-galactosidase. The transfected human HepG2 hepatoma cells were cultured under normoxic condition and hypoxic condition and then treated with TPEN (5, 10 μM) and CQ (10, 50 μM) for 16 hours each. 48 hours after the transfection, luciferase activities were analyzed using the reporter gene assay system (Promega, USA) and normalized by β-galactosidase activities.

[3] = tested on: HIF-1α; experiment: In vivo HIF-1α ubiquitination in HepG2 cells (Western blotting); details: normoxic condition, 6 hours, CQ 100 μM, TPEN 5 μM

c1ccc(CN(CCN(Cc2ccccn2)Cc2ccccn2)Cc2ccccn2)nc1 [TPEN, tetrakis-(2-pyridylmethyl)ethanediamine]
interaction of HIF-1α with CBP in cells [1]: inhibited the interaction between HIF-1α and CBP
HIF-1α dependent hypoxia-response element (HRE) activity [2]: but not TPEN induced HIF-1α dependent hypoxia-response element (HRE) activity
HIF-1α ubiquitination in cells [3]: inhibited HIF-1α ubiquitination
